# Results taken from ChEMBL document CHEMBL1201862, “PubChem BioAssay data set” (2004).
# Calls of active or inactive are those of the source. Rule as the data show it, for most assays here: actives have a measured EC50 and inactives only a lower limit.
# Assays:
# H9c2 = test: cells; format: functional, cell-based; conditions: Rattus norvegicus, H9c2, Myocardium;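 also: confirmatory concentration-response retest of ultra-high-throughput screening hits for modulation of myocardial damage; cell death induced by hydrogen peroxide oxidative stress; compound pretreatment for 60 min then peroxide exposure for 2 h; potency is for protecting the cells against peroxide damage rather than for killing them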
# [1] = molecular target: T1, Heat shock factor protein 1 (Mus musculus, UniProt P38532); test: enhancement of HSF1-driven luciferase signal – cell-based, NIH3T3, luminescence, dose retest, confirmation (AID 435004); format: functional;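 also: stress induced by proteasome inhibitor MG132 added 30 min after compound; luciferase reporter driven by HSF1 response element in NIH3T3 cells; actives raise luminescence as potentiators of the MG132 stress response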
# T1 sequence (P38532 whole entry): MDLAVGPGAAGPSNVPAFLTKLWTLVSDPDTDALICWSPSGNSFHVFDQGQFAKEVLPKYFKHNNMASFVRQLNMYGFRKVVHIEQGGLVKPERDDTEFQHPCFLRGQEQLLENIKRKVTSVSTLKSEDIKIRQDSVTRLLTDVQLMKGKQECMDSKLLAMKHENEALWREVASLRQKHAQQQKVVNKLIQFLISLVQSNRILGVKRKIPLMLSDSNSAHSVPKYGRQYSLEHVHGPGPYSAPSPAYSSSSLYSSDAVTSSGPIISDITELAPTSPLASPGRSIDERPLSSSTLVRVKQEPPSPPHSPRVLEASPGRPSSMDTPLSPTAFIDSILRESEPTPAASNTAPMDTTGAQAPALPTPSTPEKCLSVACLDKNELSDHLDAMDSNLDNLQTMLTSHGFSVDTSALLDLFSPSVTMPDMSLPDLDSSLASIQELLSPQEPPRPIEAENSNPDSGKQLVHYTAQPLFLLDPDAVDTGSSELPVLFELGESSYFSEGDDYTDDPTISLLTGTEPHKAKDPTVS
# [2] = molecular target: T2, Replicative DNA helicase DnaB (Mycobacterium tuberculosis, UniProt P9WMR3); test: DnaB intein splicing inhibitors, dose response, biochemical, cell-free fluorescence (AID 449749); format: functional
# T2 sequence (P9WMR3 whole entry): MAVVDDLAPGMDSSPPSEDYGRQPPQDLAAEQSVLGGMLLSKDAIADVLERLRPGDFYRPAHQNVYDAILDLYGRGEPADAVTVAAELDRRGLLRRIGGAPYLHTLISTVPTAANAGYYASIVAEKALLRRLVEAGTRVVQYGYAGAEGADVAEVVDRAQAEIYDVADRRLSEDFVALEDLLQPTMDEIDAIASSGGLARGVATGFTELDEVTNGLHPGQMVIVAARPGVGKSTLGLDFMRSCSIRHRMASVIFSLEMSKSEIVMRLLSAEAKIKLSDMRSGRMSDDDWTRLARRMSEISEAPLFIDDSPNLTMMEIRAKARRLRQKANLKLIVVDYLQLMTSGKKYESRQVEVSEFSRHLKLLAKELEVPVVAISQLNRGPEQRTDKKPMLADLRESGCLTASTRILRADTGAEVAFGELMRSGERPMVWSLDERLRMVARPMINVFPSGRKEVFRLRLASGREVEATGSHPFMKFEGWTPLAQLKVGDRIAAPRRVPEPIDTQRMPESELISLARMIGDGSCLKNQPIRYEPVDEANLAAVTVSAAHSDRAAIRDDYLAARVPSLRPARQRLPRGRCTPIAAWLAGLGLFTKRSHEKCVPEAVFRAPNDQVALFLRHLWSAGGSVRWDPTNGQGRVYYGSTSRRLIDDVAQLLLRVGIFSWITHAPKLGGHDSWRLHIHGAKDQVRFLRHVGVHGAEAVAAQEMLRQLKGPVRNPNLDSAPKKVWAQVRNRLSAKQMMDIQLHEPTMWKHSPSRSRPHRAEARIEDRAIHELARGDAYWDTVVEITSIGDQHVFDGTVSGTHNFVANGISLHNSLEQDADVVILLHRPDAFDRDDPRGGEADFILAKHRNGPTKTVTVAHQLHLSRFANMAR
# Protein RecA = molecular target: T3, Protein RecA (Mycobacterium tuberculosis, UniProt P9WHJ3); test: Fluorescence Cell-Free Homogeneous Dose Retest to Identify Inhibitors of RecA-Intein Splicing Activity. [Related pubchem assays (depositor defined):AID2097, AID2223, AID489010, AID492950]; format: functional
# T3 sequence (P9WHJ3 whole entry): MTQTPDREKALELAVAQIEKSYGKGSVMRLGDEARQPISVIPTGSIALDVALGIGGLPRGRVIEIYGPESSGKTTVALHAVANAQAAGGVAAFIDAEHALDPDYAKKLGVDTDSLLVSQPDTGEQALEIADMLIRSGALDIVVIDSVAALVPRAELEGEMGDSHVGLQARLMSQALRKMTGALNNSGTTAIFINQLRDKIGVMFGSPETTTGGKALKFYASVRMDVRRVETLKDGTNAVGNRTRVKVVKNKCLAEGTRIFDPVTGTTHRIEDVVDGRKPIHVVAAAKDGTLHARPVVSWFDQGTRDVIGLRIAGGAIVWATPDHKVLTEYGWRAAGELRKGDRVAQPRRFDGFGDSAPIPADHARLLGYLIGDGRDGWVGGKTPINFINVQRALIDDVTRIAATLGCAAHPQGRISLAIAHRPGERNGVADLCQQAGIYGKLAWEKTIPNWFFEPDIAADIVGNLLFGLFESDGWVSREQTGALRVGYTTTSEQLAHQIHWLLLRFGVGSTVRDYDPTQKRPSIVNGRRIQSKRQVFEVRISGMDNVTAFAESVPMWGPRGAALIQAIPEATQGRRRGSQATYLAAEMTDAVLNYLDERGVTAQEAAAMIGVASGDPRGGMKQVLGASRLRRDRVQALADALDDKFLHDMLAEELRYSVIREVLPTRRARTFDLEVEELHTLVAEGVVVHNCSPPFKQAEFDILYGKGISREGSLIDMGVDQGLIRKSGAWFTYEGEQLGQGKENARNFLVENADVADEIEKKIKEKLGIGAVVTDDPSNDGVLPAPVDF
# Streptococcus = test: GAS UMAA2166 growth inhibition – luminescence, BacTiterGlo, counter-screen for streptokinase expression inhibitor project, dose response (AID 1915); format: functional, organism-based;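 also: potency for reduction of bacterial viability or growth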
# [3] = tested on: Streptococcus sp. 'group A'; test: Streptococcus pyogenes SK(-)GAS viability under kanamycin – luminescence, BacTiterGlo, confirmation, counter-screen for streptokinase expression inhibitor project, dose response (AID 1900); format: functional, organism-based
# Streptokinase A = molecular target: T4, Streptokinase A (Streptococcus pyogenes serotype M1, UniProt P10520); test: viability-normalized secreted streptokinase activity reduction – plasminogen activation absorbance, OD405, dose response (AID 1914); format: functional, Streptococcus pyogenes M1 GAS;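 also: secreted streptokinase activity via plasminogen activation per viability signal from cell pellet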
# T4 sequence (P10520 whole entry): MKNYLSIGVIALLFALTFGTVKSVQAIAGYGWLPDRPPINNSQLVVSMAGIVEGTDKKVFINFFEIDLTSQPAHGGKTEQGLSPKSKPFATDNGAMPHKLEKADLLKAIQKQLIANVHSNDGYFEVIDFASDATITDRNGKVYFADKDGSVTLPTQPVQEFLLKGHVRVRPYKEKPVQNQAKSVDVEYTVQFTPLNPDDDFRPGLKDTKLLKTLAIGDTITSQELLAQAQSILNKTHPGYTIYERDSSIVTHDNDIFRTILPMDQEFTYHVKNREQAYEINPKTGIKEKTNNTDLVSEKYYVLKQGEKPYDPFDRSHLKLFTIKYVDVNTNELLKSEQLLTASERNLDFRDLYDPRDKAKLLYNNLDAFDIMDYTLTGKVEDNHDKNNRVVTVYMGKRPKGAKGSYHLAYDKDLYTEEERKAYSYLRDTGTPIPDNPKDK
structure (smiles),measurement,setting,value
CC(C)(C)OC(=O)N1CCC[C@H]1c1nnc(SCC(=O)Nc2ccc(Br)cc2)o1,IC50,H9c2,> 79 µM (inactive)
COC(=O)[C@@H](NC(=O)NC1CCCc2ccccc21)C(C)C (some centres not stated),EC50,[1],> 260 µM (inactive)
CCN(CC)S(=O)(=O)c1ccc(N2CCOCC2)c(NC(=O)c2cc(-c3ccccn3)nc3ccccc23)c1,IC50,H9c2,> 79 µM (inactive)
CCc1nnc(NC(=O)C(NC(=O)c2ccccc2Cl)C(C)C)s1 (configuration not stated),EC50,[1],> 260 µM (inactive)
CCCc1n[nH]c2c1C1(C(=O)N(Cc3ccccc3)c3ccccc31)C(C(=O)OC)=C(N)O2 (configuration not stated),EC50,[1],> 260 µM (inactive)
Cc1ccc(/C=C2\SC(N3CCN(C(c4ccccc4)c4ccccc4)CC3)=NC2=O)o1,AC50,[2],> 380 µM (inactive)
same,EC50,Protein RecA,49.1 µM (active)
COC(=O)c1ccc(Cn2c(C)c(C(=O)NCc3cccs3)sc2=O)o1,IC50,H9c2,12.1 µM (active)
c1ccc(-c2nc(C3CCCCC3)c3ccccc3n2)cc1,EC50,Streptococcus,25.2 µM (active)
same,EC50,[3],3.71 µM (active)
same,EC50,Streptokinase A,21.6 µM (active)
COc1ccccc1-c1[nH]nc2c1[C@H](C)CC[C@H]2C(C)C,EC50,Streptococcus,> 150 µM (not active)
same,EC50,[3],10.9 µM (active)
same,EC50,Streptokinase A,> 150 µM (not active)
COc1ccc(C2/C=C\CN(C(=O)c3ccccc3)CC(=O)N2Cc2ccc(F)cc2)cc1 (configuration not stated),EC50,Streptococcus,> 150 µM (not active)
same,EC50,[3],> 150 µM (not active)
same,EC50,Streptokinase A,> 150 µM (not active)
COc1ccc(/C=N/NC(=O)c2cc(-c3ccc4c(c3)OCO4)[nH]n2)cc1OC,IC50,H9c2,> 79 µM (inactive)
O=C1NCCCC2c3c(cc(Br)c(O)c3Br)OC12N1CCCCC1 (configuration not stated),AC50,[2],32.1 µM (active)
same,EC50,Protein RecA,5.46 µM (active)
CCCN(CC(=O)Nc1ccccc1C)C(=O)Cc1nnc(O)c2ccccc12,IC50,H9c2,> 79 µM (inactive)
CCOCCn1ccc2c(OCC(=O)Nc3cc(OC)ccc3OC)cccc2c1=O,IC50,H9c2,> 79 µM (inactive)
CC(=O)Oc1ccc(Cn2cnc3cc4ccccc4cc32)cc1,EC50,[1],44.4 µM (active)
CN(CC1CCCO1)S(=O)(=O)c1ccc(C(=O)Nc2ccccc2F)cc1 (configuration not stated),EC50,Streptococcus,> 150 µM (not active)
same,EC50,[3],> 150 µM (not active)
same,EC50,Streptokinase A,> 150 µM (not active)
COc1ccccc1CN1CCSCC1,AC50,[2],13.2 µM (active)
same,EC50,Protein RecA,5.08 µM (active)
COc1ccc(OC)c(C2C(C#N)=C(N)Oc3c2c(C)nn3-c2ccc(C)cc2)c1 (configuration not stated),AC50,[2],> 380 µM (inactive)
same,EC50,Protein RecA,4.91 µM (active)
N#Cc1cc(-c2ccccc2)cnc1Sc1ccccc1,EC50,[1],> 260 µM (inactive)
COc1cccc(NN=C2C(=O)NC(=S)NC2=O)c1,EC50,[1],9.18 µM (active)
COc1ccc(S(=O)(=O)Nc2ccncc2)c(C)c1C,EC50,[1],> 260 µM (inactive)
Fc1ccc(Nc2nc(Oc3ccccc3F)nc(N3CCCC3)n2)cc1,AC50,[2],3.2 µM (active)
same,EC50,Protein RecA,0.946 µM (active)
COc1ccccc1C1C(C#N)=C(N)Oc2c1c(-c1ccccc1)nn2-c1ccccc1 (configuration not stated),AC50,[2],9.85 µM (active)
same,EC50,Protein RecA,4.49 µM (active)
CC(C)C[C@H](NC(=O)c1[nH]cnc1C(=O)N[C@@H](C)C(=O)OC(C)(C)C)C(=O)OCc1ccccc1,EC50,Streptococcus,40.9 µM (active)
same,EC50,[3],8.12 µM (active)
same,EC50,Streptokinase A,> 150 µM (not active)
COc1ccc(OC)c(Nc2nc(N)c([N+](=O)[O-])c(N3CCOCC3)n2)c1,IC50,H9c2,17.7 µM (active)
C[C@@H]1CN([C@@H](C)CO)C(=O)c2cc(NC(=O)Nc3ccccc3)ccc2O[C@H]1CN(C)C(=O)Nc1cccc2ccccc12,IC50,H9c2,13.9 µM (active)
Cc1sc2nc(C3CC3)nc(SCC(=O)N3CCc4ccccc4C3)c2c1C,EC50,[1],28.6 µM (active)
O=C(Nc1ccc(F)c(Cl)c1)Nc1csc2ccccc12,EC50,Streptococcus,5.69 µM (active)
same,EC50,[3],6.52 µM (active)
same,EC50,Streptokinase A,> 50 µM (not active)
COc1ccccc1N1CC(C(=O)Nc2nnc(SCC(=O)N3CCCC3)s2)CC1=O (configuration not stated),EC50,Streptococcus,> 150 µM (not active)
same,EC50,[3],> 150 µM (not active)
same,EC50,Streptokinase A,> 150 µM (not active)
O=C(CSc1nnc(-c2c[nH]c3ccccc23)o1)c1ccccc1,EC50,[1],> 260 µM (inactive)
CCCCCCCN1N=C(C)C(C(=O)c2ccccc2)C1=O (configuration not stated),EC50,Streptococcus,30.9 µM (active)
same,EC50,[3],2.89 µM (active)
same,EC50,Streptokinase A,> 150 µM (not active)
COC(=O)Cc1c(C)[nH]n(-c2cc(Cl)cc(Cl)c2)c1=O,AC50,[2],11 µM (active)
same,EC50,Protein RecA,16.9 µM (active)
COc1ccc(C(=O)COc2ccccc2C(N)=O)cc1,IC50,H9c2,> 79 µM (inactive)
N=c1c(S(=O)(=O)c2ccc(Br)cc2)cc2c(=O)n3ccccc3nc2n1C1CCCC1,EC50,[1],> 260 µM (inactive)
